Assay results from publication PMC7244523, “A Cell-based Screen in Actinomyces oris to Identify Sortase Inhibitors” (Scientific Reports, 2020).
≈ marks a conversion by molar mass, not a printed value.

How the values were obtained:
[1] = test system: A. oris ΔgspA and ΔlcpA strains; experiment: Pilus display by transmission electron microscopy; assay type: cell-based, Actinomyces oris; conditions: 10 μM; for Pilus assembly at the cell pole (TEM): ΔgspA or ΔlcpA strain, versus untreated control; for Pili display (TEM): ΔgspA strain, Fig. 5A–D
Experimental: To examine if these molecules inhibit cell wall anchoring of surface proteins (e.g. GspA), we similarly treated cells devoid of lcpA, i.e. ΔlcpA, another suppressor of srtA[46]. […] To corroborate these observations, we subjected A. oris cells of ΔgspA and Δlcp strains to 10 μM of each molecule (3, 4 and 6) and studied pilus display with transmission electron microscopy (TEM), whereby A. oris cells were immobilized on nickel grids and stained with 1% uranyl acetate prior to viewing by an electron microscope.
To observe cell morphology by negative staining, A. oris cells harvested after inhibitor treatment were washed once with PBS and suspended in 0.1 M NaCl. A drop of 7 µL of bacterial suspension was placed onto carbon-coated nickel grids and stained with 1% uranyl acetate. Samples were examined using a JEOL JEM1200.

A. oris ΔgspAΔsrtA = experiment: Minimum inhibitory concentration, ΔgspA/ΔsrtA strain; assay type: cell-based, Actinomyces oris; conditions: BHI, 96-well plates, 18 hours
Experimental: Two validation assays were performed for each hit molecule that measured: (i) the minimum inhibitory concentration (MIC) required to prevent growth of the MG-1 and ΔsrtA/ΔgspA strains, and (ii) their in vitro inhibitory activity against the enzymatic activity of the A. oris and S. aureus sortase enzymes. Initially, the selective growth effect originally observed in the HTS that used 384-well plates was more rigorously defined by determining each molecule’s MIC value for the MG-1 and ΔsrtA/ΔgspA strains. Cells were cultured in 100 µL media containing 2-fold dilutions of each small molecule between 320 µM and 0.039 µM (approximately 134 µg mL^−1 to […]).
Minimum inhibitory concentration (MIC) values were determined for molecules 1–6 according to the Clinical Laboratory Standard Institutes’ (CLSI) Methods for Dilution Antimicrobial Susceptibility Tests for Bacteria that Grow Aerobically, Approved standards-ninth edition; M07-A9 Vol. 32 No. 2 with the following alterations. Overnight cultures of MG-1 and ΔgspAΔsrtA were diluted to OD600 values of 0.01 before being added to BHI containing the appropriate molecule in 96-well plates. Mueller-Hinton broth was not usable because A. oris is a fastidious bacterium. Plates were sealed with Breatheasy seals and incubated for 18 hours, as A. oris has a doubling time of 2 hours. Plate seals were removed and OD600 values measured. Each plate was run with a positive control (cells, media, and Penicillin G), negative control (media and cells only), and contamination control (media only).

[2] = test system: A. oris MG-1 (wild-type) versus ΔsrtA/ΔgspA strain; experiment: High-throughput cell-based growth screen and counter-screen (differential growth); design: species or system Actinomyces oris; conditions: differential effect on wild-type MG-1 and ΔgspAΔsrtA strains in the HTS; 10 µM, in duplicate; 100 = extreme difference, 0 = none
Experimental: In the primary screen, a total of 200,834 small molecules were tested for their ability to impair A. oris MG-1 growth. Cells were added to an optical density (OD600) of 0.01 in media containing 10 µM of each molecule, followed by a 15 hour incubation at 37 °C and end-point OD600 measurement. The growth effect of each molecule was normalized and expressed as a percent growth relative to the DMSO-only control (see Methods). A total of 1,904 molecules were classified as preliminary hits (0.95% of the molecules tested), as they reduced MG-1 growth after 15 hours by at least 34%, or 2.75 standard deviations below the average. The preliminary hits were then subjected to a counter-screen in which their growth effects on ΔsrtA/ΔgspA were determined. In order to eliminate potentially erroneously identified preliminary hits, the counter-screen and preliminary screen was performed in duplicate for the 1,904 preliminary hit molecules. A molecule was deemed as a hit if it caused greater than 15% differential growth effect in duplicate when the MG-1 and ΔsrtA/ΔgspA strains were compared. […] Data is plotted as the percentage of growth inhibition for each molecule (see Methods).
A total of 200,834 small molecule compounds (Molecular Screening Shared Resource, UCLA) were dissolved in 100% Omnisolv methylsulfoxide (MilliporeSigma MX1456P-6) and stored in 384-well polypropylene plates. Actinomyces oris MG-1 and ΔgspAΔsrtA were streaked out on BHI agar plates containing 50 µg/mL kanamycin and grown at 37 °C for 48 hours to allow single colonies to grow. Cultures were started from 2–3 colonies in BHI with 50 µg/mL kanamycin and allowed to grow until an OD600 between 0.1–0.4. Meanwhile, 384-well plates were filled with 25 µL BHI broth with 100 µg mL^−1 kanamycin (columns 1–22) or 200 µg mL^−1 Penicillin G (positive control, columns 23–24). Five hundred nanoliters of small molecules were transferred into the media (columns 3–22) using the Biomex FX^P automated work station with a 384-well pin tool. Precultures were diluted to an OD600 of 0.02 in 1 L BHI broth without antibiotics. Twenty five microliters of cell culture was immediately aliquoted into plates containing 25 µL media, antibiotics, and small-molecules using a Multidrop (Thermo LabSystems), resulting in 50 µg mL^−1 kanamycin and 10 µM small molecules with 1% DMSO or 100 µg mL^−1 Penicillin G. Plates were immediately lidded and placed into a humidified Cytomat 6001 incubator at 37 °C and allowed to grow for 15.5 hours. Following incubation, plates were removed from the Cytomat using a Thermo Spinnaker robotic arm on a rail, de-lidded, and placed into an EnVision high-speed plate reader for optical density measurement at 620 nm.
Raw data obtained from the screen was formatted in-house to upload to the Collaborative Drug Discovery Vault (www.collaborativedrug.com). Individual optical density readings were converted to a percent growth value ([ODsample-ODPositive control]/[ODNegative Control Average- ODPositive control]) and percent growth inhibition (1-percent growth). The Z-factors for the individual molecules were determined. Molecules with a Z-factor less than or equal to -2.75 were considered preliminary hits to advance forward a generous collection of preliminary hit molecules. Five microliters of each of the 1904 preliminary hit molecules were re-arrayed into new 384-well polypropylene plates. Each of the 1904 preliminary hits were assayed against both the MG-1 and ΔgspAΔsrtA strains in duplicate, on two separate days. Percent difference of growth was calculated according to the equation 100–100[(ODMG-1, Sample-ODMG-1, Positive Control)/ODΔgspAΔsrtA, Sample-ODΔgspAΔsrtA, Positive Control)]/[(ODMG-1, Average-ODMG-1, Positive Control)/ODΔgspAΔsrtA, Average-ODΔgspAΔsrtA, Positive Control)]. […] Molecules were ranked according to their relative growth.

SMILES | Pilus assembly at the cell pole (TEM) [1] | Pili display (TEM) [1] | MIC (ΔgspA/ΔsrtA) (A. oris ΔgspAΔsrtA) [µg/mL] | Differential Growth [2] [%]
Cc1nc(COc2ccc(F)cc2)sc1CC(=O)Nc1nc2c(s1)CC(C)CC2 (stereo not drawn) [Compound 6] | significant reduction of pilus assembly at the cell pole | only modestly effects pili display | 8.4 (≈ 19.5 µM) | 71.8 ± 16.5
CCc1ccc2nc(N(Cc3cccnc3)C(=O)c3ccc([N+](=O)[O-])o3)sc2c1 [Compound 3] | significant reduction of pilus assembly at the cell pole | completely absent | >130 | 17.5 ± 3.5
COc1ccc2nc(N(Cc3ccccc3)C(=O)c3ccc([N+](=O)[O-])o3)sc2c1 [Compound 4] | significant reduction of pilus assembly at the cell pole | diminished | >130 | 38.5 ± 0.5
